Assay results reported in patent publication US6423720B1, “Pyrimidine compounds and methods for making and using the same” (Duquesne University of the Holy Ghost, priority 2001, dated 2002).
Marks after values point to notes of the source that are not given here.

Columns and labels:
[1] = molecular target: T1, dihydrofolate reductase (DHFR) from rat liver (RL) (Rattus norvegicus, UniProt Q920D2); experiment: Inhibition of dihydrofolate reductase from rat liver (RL DHFR); format: biochemical; conditions: for IC50: read-out: RL DHFR Inhibitory Concentration (IC50)
T1 construct: the IC50 value of the DHFR from rat liver (RL); from tissue; host or cells: rat liver
T1 sequence (Q920D2 1-187): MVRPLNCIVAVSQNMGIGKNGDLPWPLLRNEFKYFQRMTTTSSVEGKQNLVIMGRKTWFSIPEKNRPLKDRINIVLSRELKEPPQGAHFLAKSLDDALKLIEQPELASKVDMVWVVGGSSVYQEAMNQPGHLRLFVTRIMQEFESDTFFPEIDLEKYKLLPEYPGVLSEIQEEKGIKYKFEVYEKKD
Source text: (§1) The following examples are intended to illustrate the invention, and should not be construed as limiting the invention in any way. Standard test procedures familiar to those skilled in the art were used in the examples, such as those procedures described by Gangjee, A., et al., in “5-Arylthio-substituted 2-amino-4-oxo-6-methyl pyrrolo[2,3-d]pyrimidine antifolates as thymidylate synthase inhibitors and antitumor agents”, J. Med. Chem., Vol. 38, pp. 4495-4502 (1995); “Effect of bridge region variation on antifolate and antitumor activity of classical 5-substituted 2,4-diamino furo [2,3-d]pyrimidines”, J. Med. Chem., Vol. 38, pp. 3798-3805 (1995); and “Novel 2 ,4-diamino-5-substituted-pyrrolo[2,3-d]pyrimidines As Classical and Non-Classical Antifolate Inhibitors of Dihydrofolate Reductases”, J. Med. Chem., Vol. 38, pp. 2158-2165 (Jun. 6, 1995) and references disclosed therein.
(§2) The compounds described in Table 1 were evaluated as inhibitors of dihydrofolate reductase (DHFR) from Toxoplasmosis gondii (Tx) and rat liver (RL). The evaluation of the compounds consisted of determining the IC50 values and selectivity ratios of each compound against Tx DHFR and RL DHFR. The IC50 value is the concentration of a compound required to inhibit the dihydrofolate reductase activity by 50 percent (%). […] The selectivity ratio is a measure of the selectivity of a compound for Tx DHFR and is expressed as the IC50 value of the DHFR from rat liver (RL) divided by the IC50 value of the Tx DHFR. For example, the selectivity ratio of a compound is calculated by the following formula: [formula]

[2] = molecular target: T2, dihydrofolate reductase (DHFR) from Toxoplasmosis gondii (Tx) (Toxoplasma gondii, UniProt Q07422); experiment: Inhibition of dihydrofolate reductase from Toxoplasmosis gondii (Tx DHFR); format: biochemical; conditions: for Selectivity Ratio: RL DHFR/Tx DHFR: IC50 RL DHFR divided by IC50 Tx DHFR; for IC50: Toxoplasma gondii DHFR, read-out: Tx DHFR Inhibitory Concentration (IC50)
T2 sequence (Q07422 1-610): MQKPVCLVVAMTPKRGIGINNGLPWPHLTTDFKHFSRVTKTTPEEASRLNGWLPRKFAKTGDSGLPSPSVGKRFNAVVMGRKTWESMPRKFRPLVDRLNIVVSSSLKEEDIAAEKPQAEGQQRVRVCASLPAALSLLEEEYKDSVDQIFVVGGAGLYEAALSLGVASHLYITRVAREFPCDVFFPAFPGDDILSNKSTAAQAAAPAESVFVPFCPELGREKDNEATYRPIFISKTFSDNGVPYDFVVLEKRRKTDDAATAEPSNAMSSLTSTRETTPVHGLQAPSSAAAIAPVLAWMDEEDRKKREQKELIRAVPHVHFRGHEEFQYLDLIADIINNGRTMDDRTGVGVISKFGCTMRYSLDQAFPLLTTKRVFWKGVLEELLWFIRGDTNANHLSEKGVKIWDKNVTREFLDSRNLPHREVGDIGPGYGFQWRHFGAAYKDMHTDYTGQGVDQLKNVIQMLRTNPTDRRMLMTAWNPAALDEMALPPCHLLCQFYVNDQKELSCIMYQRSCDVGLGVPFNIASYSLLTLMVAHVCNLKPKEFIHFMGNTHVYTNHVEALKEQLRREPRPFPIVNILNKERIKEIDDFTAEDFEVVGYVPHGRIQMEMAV
Source text: as §1, §2

[3] = molecular target: T3, DHFR from Pneumocystis carinii (PC) (Pneumocystis carinii, UniProt P16184); experiment: Inhibition of DHFR from Pneumocystis carinii (Pc); format: biochemical
T3 sequence (P16184 1-206): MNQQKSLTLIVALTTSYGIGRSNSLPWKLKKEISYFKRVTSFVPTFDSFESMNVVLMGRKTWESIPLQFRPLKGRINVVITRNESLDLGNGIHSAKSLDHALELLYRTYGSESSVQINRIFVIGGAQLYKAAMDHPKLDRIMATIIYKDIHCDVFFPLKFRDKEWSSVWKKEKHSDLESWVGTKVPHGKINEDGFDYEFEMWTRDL

| IC50 [1] [µM] | SMILES | Selectivity Ratio: RL DHFR/Tx DHFR [2] | IC50 [2] [µM] | also measured |
| --- | --- | --- | --- | --- |
| 97.2 | Nc1nc(N)c(Sc2cccc3ccccc23)c(=O)[nH]1 [Compound 165] | 198.4 | 0.49 | – |
| 19.8 | Nc1nc(N)c(Sc2ccc(Cl)cc2)c(=O)[nH]1 [Compound 167] | 90.0 | 0.22 | – |
| 28.5 | COc1ccc(OC)c(Sc2c(N)nc(N)[nH]c2=O)c1 [Compound 169] | 142.5 | 0.2 | – |
| 122 | Nc1nc(N)c(Sc2ccc(C(=O)O)cc2)c(=O)[nH]1 [Compound 170] | 2.3 | 53.8 | RL/Pc selectivity ratio ([3]; IC50 RL DHFR divided by IC50 Pc DHFR): 1.4; IC50 ([3]; Pneumocystis carinii DHFR): 89.5 µM |
| 4.7 | Nc1nc(N)c(Sc2ccccc2Cl)c(=O)[nH]1 [Compound 171] | 13.4 | 0.35 | – |
| 30 | Nc1nc(N)c(Sc2ccc3ccccc3c2)c(=O)[nH]1 [Compound 174] | 85.7 | 0.35 | – |
| 53.4 | COc1cccc(Sc2c(N)nc(N)[nH]c2=O)c1 [Compound 175] | 92.1 | 0.58 | – |
| 17.5 | Nc1nc(N)c(Sc2c(Cl)cccc2Cl)c(=O)[nH]1 [Compound 176] | 10.3 | 1.7 | – |
| 2.3 | Nc1nc(N)c(Sc2ccc(Cl)cc2Cl)c(=O)[nH]1 [Compound 177] | 16.4 | 0.14 | – |
| 101 | Nc1nc(N)c(Sc2ccncc2)c(=O)[nH]1 [Compound 179] | 11.9 | 8.5 | – |
| – | Nc1nc(N)c(SCc2ccc(Cl)cc2)c(=O)[nH]1 [Compound 180] | >3.16# | 16.6 | RL DHFR inhibition at 60 μM ([1]; @ 60 μM): 26% @ 60 μM |
| – | COc1ccc(Sc2c(N)nc(N)[nH]c2=O)cc1OC [Compound 181] | >35.2# | 1.9 | inhibition at 67 µM ([1]; @ 67 μM): 19% |
| 20.2 | Nc1nc(N)c(Sc2cc(Cl)cc(Cl)c2)c(=O)[nH]1 [Compound 184] | 74.8 | 0.27 | – |
| 15 | Nc1nc(N)c(Sc2ccc([N+](=O)[O-])cc2)c(=O)[nH]1 [Compound 185, 2,4-diamino-6-oxo-5-(4′-nitrophenylthio)pyrimidine] | 55.6 | 0.27 | melting point: > 300 °C (dec.) |
| 40.7 | Nc1nc(N)c(SCc2ccccc2)c(=O)[nH]1 [Compound 187] | 7.7 | 5.3 | – |
| 117 | Nc1nc(N)c(Sc2ccccn2)c(=O)[nH]1 [Compound 188] | 24.9 | 4.7 | – |
| 24.2 | Nc1nc(N)c(SCc2ccc(Cl)c(Cl)c2)c(=O)[nH]1 [Compound 190] | 16.1 | 1.5 | – |
| 66.8 | COc1cccc(CSc2c(N)nc(N)[nH]c2=O)c1 [Compound 191] | 10.1 | 6.6 | – |
| 7 | Nc1nc(N)c(SCc2ccc(Cl)cc2Cl)c(=O)[nH]1 [Compound 193] | 10 | 0.7 | – |
| 193 | Cc1ccc(CSc2c(N)nc(N)[nH]c2=O)cc1 [Compound 194] | 25.4 | 7.6 | – |
| – | Cc1cccc(CSc2c(N)nc(N)[nH]c2=O)c1 [Compound 196] | >7.18 # | 11.5 | RL DHFR inhibition at 90 μM ([1]; @ 90 μM): 3% @ 90 μM |
| 8.2 | Nc1nc(N)c(SCc2ccccc2Cl)c(=O)[nH]1 [Compound 197] | 3.7 | 2.2 | – |
| 263 | COc1ccccc1Sc1c(N)nc(N)[nH]c1=O [Compound 198] | 45.3 | 5.8 | – |
| 53 | Nc1nc(N)c(Sc2nc(-c3ccccc3)cs2)c(=O)[nH]1 [Compound 199] | 4.3 | 12.2 | – |
| 46.7 | Nc1nc(N)c(SCc2ccc(Br)cc2)c(=O)[nH]1 [Compound 202] | 24.6 | 1.9 | – |
